According to patent US10150760B2, “Compounds for use in preparing heterocyclic triazole agonists of the APJ receptor” (AMGEN INC., priority 2016, dated 2018):

Biological target: human APJ receptor (Homo sapiens (Human), UniProt P35414)
Assay: [35S]GTPγS binding assay on membranes from CHO cells stably expressing human APJ receptor
Type: biochemical
Conditions: read-out: Activity hAPJ SPA EC50 IP
How it was run: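 Membranes from CHO cells stably expressing human APJ incubated with ligand, 0.2 nM [35S]GTPγS and WGA SPA beads in HEPES pH 7.5 with 5 mM MgCl2, 200 mM NaCl, 3 μM GDP, 90 min at RT. Nonspecific binding defined with 100 μM GTPγS; EC50 by non-linear regression.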

Sequence of human APJ receptor (P35414 whole entry): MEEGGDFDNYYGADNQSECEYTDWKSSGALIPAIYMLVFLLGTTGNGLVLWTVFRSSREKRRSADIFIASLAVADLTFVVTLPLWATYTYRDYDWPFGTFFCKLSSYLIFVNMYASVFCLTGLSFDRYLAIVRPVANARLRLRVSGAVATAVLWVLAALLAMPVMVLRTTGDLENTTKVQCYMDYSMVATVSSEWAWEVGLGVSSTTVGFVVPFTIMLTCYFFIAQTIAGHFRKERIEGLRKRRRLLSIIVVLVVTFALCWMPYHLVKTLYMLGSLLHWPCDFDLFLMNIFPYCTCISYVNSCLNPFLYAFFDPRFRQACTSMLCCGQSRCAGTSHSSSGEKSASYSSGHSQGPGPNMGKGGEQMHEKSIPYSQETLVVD

Row | Substance | EC50 [nM]
1 | (1S,2S)-1-(5-chloro-2-pyrimidinyl)-N-(4-cyclopropyl-5-((2S,5S)-5-methyltetrahydro-2-furanyl)-4H-1,2,4-triazol-3-yl)-1-(2-propanyloxy)-2-propanesulfonamide or (1S,2S)-1-(5-chloro-2-pyrimidinyl)-N-(4-cyclopropyl-5-((2R,5R)-5-methyltetrahydro-2-furanyl)-4H-1,2,4-triazol-3-yl)-1-(2-propanyloxy)-2-propanesulfonamide [Example 352.0] | 1490
2 | (1S,2S)-1-(5-chloropyrimidin-2-yl)-1-isopropoxy-N-(4-(1-(methoxymethyl)cyclopropyl)-5-((R)-tetrahydrofuran-3-yl)-4H-1,2,4-triazol-3-yl)propane-2-sulfonamide or (1S,2S)-1-(5-chloropyrimidin-2-yl)-1-isopropoxy-N-(4-(1-(methoxymethyl)cyclopropyl)-5-((S)-tetrahydrofuran-3-yl)-4H-1,2,4-triazol-3-yl)propane-2-sulfonamide [Example 319.0] | 130
3 | (1S,2S)-1-(5-chloropyrimidin-2-yl)-1-isopropoxy-N-(4-(1-(methoxymethyl)cyclopropyl)-5-((R)-tetrahydrofuran-3-yl)-4H-1,2,4-triazol-3-yl)propane-2-sulfonamide or (1S,2S)-1-(5-chloropyrimidin-2-yl)-1-isopropoxy-N-(4-(1-(methoxymethyl)cyclopropyl)-5-((S)-tetrahydrofuran-3-yl)-4H-1,2,4-triazol-3-yl)propane-2-sulfonamide [Example 320.0] | 45
4 | (1S,2S)-1-isopropoxy-1-(5-methylpyrazin-2-yl)-N-(4-(tetrahydro-2H-pyran-4-yl)-5-((R)-tetrahydrofuran-2-yl)-4H-1,2,4-triazol-3-yl)propane-2-sulfonamide or (1S,2S)-1-isopropoxy-1-(5-methylpyrazin-2-yl)-N-(4-(tetrahydro-2H-pyran-4-yl)-5-((S)-tetrahydrofuran-2-yl)-4H-1,2,4-triazol-3-yl)propane-2-sulfonamide [Example 260.0] | > 4200
5 | (1S,2S)-1-isopropoxy-1-(5-methylpyrazin-2-yl)-N-(4-(tetrahydro-2H-pyran-4-yl)-5-((R)-tetrahydrofuran-2-yl)-4H-1,2,4-triazol-3-yl)propane-2-sulfonamide or (1S,2S)-1-isopropoxy-1-(5-methylpyrazin-2-yl)-N-(4-(tetrahydro-2H-pyran-4-yl)-5-((S)-tetrahydrofuran-2-yl)-4H-1,2,4-triazol-3-yl)propane-2-sulfonamide [Example 261.0] | 150
6 | (1S,2S)-1-isopropoxy-1-(5-methylpyrazin-2-yl)-N-(5-((2S,5S)-5-methyltetrahydrofuran-2-yl)-4-(tetrahydro-2H-pyran-4-yl)-4H-1,2,4-triazol-3-yl)propane-2-sulfonamide or (1S,2S)-1-isopropoxy-1-(5-methylpyrazin-2-yl)-N-(5-((2R,5R)-5-methyltetrahydrofuran-2-yl)-4-(tetrahydro-2H-pyran-4-yl)-4H-1,2,4-triazol-3-yl)propane-2-sulfonamide [Example 262.0] | > 4200
7 | (1S,2S)-1-isopropoxy-1-(5-methylpyrazin-2-yl)-N-(5-((2S,5S)-5-methyltetrahydrofuran-2-yl)-4-(tetrahydro-2H-pyran-4-yl)-4H-1,2,4-triazol-3-yl)propane-2-sulfonamide or (1S,2S)-1-isopropoxy-1-(5-methylpyrazin-2-yl)-N-(5-((2R,5R)-5-methyltetrahydrofuran-2-yl)-4-(tetrahydro-2H-pyran-4-yl)-4H-1,2,4-triazol-3-yl)propane-2-sulfonamide [Example 263.0] | 460
8 | (1S,2S)-N-(4-(1,3-dimethoxy-2-propanyl)-5-((2R,5R)-5-methyltetrahydro-2-furanyl)-4H-1,2,4-triazol-3-yl)-1-(5-methyl-2-pyridinyl)-1-(2-propanyloxy)-2-propanesulfonamide or (1S,2S)-N-(4-(1,3-dimethoxy-2-propanyl)-5-((2S,5S)-5-methyltetrahydro-2-furanyl)-4H-1,2,4-triazol-3-yl)-1-(5-methyl-2-pyridinyl)-1-(2-propanyloxy)-2-propanesulfonamide [Example 366.0] | 680

Further substances by falling EC50, results first:

Row | EC50 [nM] | Substance
9 | 390 | (1S,2S)-N-(4-(1,3-dimethoxy-2-propanyl)-5-((2R,5R)-5-methyltetrahydro-2-furanyl)-4H-1,2,4-triazol-3-yl)-1-(5-methoxy-2-pyrimidinyl)-1-(2-propanyloxy)-2-propanesulfonamide or (1S,2S)-N-(4-(1,3-dimethoxy-2-propanyl)-5-((2S,5S)-5-methyltetrahydro-2-furanyl)-4H-1,2,4-triazol-3-yl)-1-(5-methoxy-2-pyrimidinyl)-1-(2-propanyloxy)-2-propanesulfonamide [Example 362.0]
10 | 310 | (1S,2S)-N-(4-(1,3-dimethoxy-2-propanyl)-5-((2R,5R)-5-methyltetrahydro-2-furanyl)-4H-1,2,4-triazol-3-yl)-1-(5-fluoro-2-pyrimidinyl)-1-(2-propanyloxy)-2-propanesulfonamide or (1S,2S)-N-(4-(1,3-dimethoxy-2-propanyl)-5-((2S,5S)-5-methyltetrahydro-2-furanyl)-4H-1,2,4-triazol-3-yl)-1-(5-fluoro-2-pyrimidinyl)-1-(2-propanyloxy)-2-propanesulfonamide [Example 360.0]
11 | 100 | (1S,2S)-1-(5-chloro-2-pyrimidinyl)-N-(4-cyclopropyl-5-((2S,5S)-5-methyltetrahydro-2-furanyl)-4H-1,2,4-triazol-3-yl)-1-(2-propanyloxy)-2-propanesulfonamide or (1S,2S)-1-(5-chloro-2-pyrimidinyl)-N-(4-cyclopropyl-5-((2R,5R)-5-methyltetrahydro-2-furanyl)-4H-1,2,4-triazol-3-yl)-1-(2-propanyloxy)-2-propanesulfonamide [Example 353.0]
12 | 92 | (1S,2S)-1-(5-chloro-2-pyrimidinyl)-N-(4-(1,3-dimethoxy-2-propanyl)-5-((2R,5R)-5-methyltetrahydro-2-furanyl)-4H-1,2,4-triazol-3-yl)-1-(2-propanyloxy)-2-propanesulfonamide or (1S,2S)-1-(5-chloro-2-pyrimidinyl)-N-(4-(1,3-dimethoxy-2-propanyl)-5-((2S,5S)-5-methyltetrahydro-2-furanyl)-4H-1,2,4-triazol-3-yl)-1-(2-propanyloxy)-2-propanesulfonamide [Example 354.0]
13 | 72 | (1S,2S)-N-(4-(1,3-dimethoxy-2-propanyl)-5-((2R,5R)-5-methyltetrahydro-2-furanyl)-4H-1,2,4-triazol-3-yl)-1-(5-methyl-2-pyrazinyl)-1-(2-propanyloxy)-2-propanesulfonamide or (1S,2S)-N-(4-(1,3-dimethoxy-2-propanyl)-5-((2S,5S)-5-methyltetrahydro-2-furanyl)-4H-1,2,4-triazol-3-yl)-1-(5-methyl-2-pyrazinyl)-1-(2-propanyloxy)-2-propanesulfonamide [Example 365.0]
14 | 69 | (1S,2S)-N-(4-(1,3-dimethoxy-2-propanyl)-5-((2R,5R)-5-methyltetrahydro-2-furanyl)-4H-1,2,4-triazol-3-yl)-1-(5-methyl-2-pyrazinyl)-1-(2-propanyloxy)-2-propanesulfonamide or (1S,2S)-N-(4-(1,3-dimethoxy-2-propanyl)-5-((2S,5S)-5-methyltetrahydro-2-furanyl)-4H-1,2,4-triazol-3-yl)-1-(5-methyl-2-pyrazinyl)-1-(2-propanyloxy)-2-propanesulfonamide [Example 364.0]
15 | 28 | (1S,2S)-N-(4-(1,3-dimethoxy-2-propanyl)-5-((2R,5R)-5-methyltetrahydro-2-furanyl)-4H-1,2,4-triazol-3-yl)-1-(5-methoxy-2-pyrimidinyl)-1-(2-propanyloxy)-2-propanesulfonamide or (1S,2S)-N-(4-(1,3-dimethoxy-2-propanyl)-5-((2S,5S)-5-methyltetrahydro-2-furanyl)-4H-1,2,4-triazol-3-yl)-1-(5-methoxy-2-pyrimidinyl)-1-(2-propanyloxy)-2-propanesulfonamide [Example 363.0]
16 | 12 | (1S,2S)-N-(4-(1,3-dimethoxy-2-propanyl)-5-((2R,5R)-5-methyltetrahydro-2-furanyl)-4H-1,2,4-triazol-3-yl)-1-(5-methyl-2-pyridinyl)-1-(2-propanyloxy)-2-propanesulfonamide or (1S,2S)-N-(4-(1,3-dimethoxy-2-propanyl)-5-((2S,5S)-5-methyltetrahydro-2-furanyl)-4H-1,2,4-triazol-3-yl)-1-(5-methyl-2-pyridinyl)-1-(2-propanyloxy)-2-propanesulfonamide [Example 367.0]
17 | 10 | (1S,2S)-N-(4-(1,3-dimethoxy-2-propanyl)-5-((2R,5R)-5-methyltetrahydro-2-furanyl)-4H-1,2,4-triazol-3-yl)-1-(5-fluoro-2-pyrimidinyl)-1-(2-propanyloxy)-2-propanesulfonamide or (1S,2S)-N-(4-(1,3-dimethoxy-2-propanyl)-5-((2S,5S)-5-methyltetrahydro-2-furanyl)-4H-1,2,4-triazol-3-yl)-1-(5-fluoro-2-pyrimidinyl)-1-(2-propanyloxy)-2-propanesulfonamide [Example 361.0]
18 | 1.2 | (1S,2S)-1-(5-chloro-2-pyrimidinyl)-N-(4-(1,3-dimethoxy-2-propanyl)-5-((2R,5R)-5-methyltetrahydro-2-furanyl)-4H-1,2,4-triazol-3-yl)-1-(2-propanyloxy)-2-propanesulfonamide or (1S,2S)-1-(5-chloro-2-pyrimidinyl)-N-(4-(1,3-dimethoxy-2-propanyl)-5-((2S,5S)-5-methyltetrahydro-2-furanyl)-4H-1,2,4-triazol-3-yl)-1-(2-propanyloxy)-2-propanesulfonamide [Example 355.0]
